Experiment: Intraperitoneal administration to intact rats: accumulation of metals in liver and kidney tissues
Type: in vivo
Conditions: day 1 and day 7 after drug withdrawal, 3750 μg of zinc per kg intraperitoneally, 7 injections
Protocol: Animals are placed in cages, 4 per cage, with free access to food/water. […] Administration is performed every other day, in the amount of 7 injections per animal (intraperitoneal method of drug administration). […] After the last injection, a half of the animals are maintained on hunger (for 12 hours) with free access to water. Upon expiration of this time period, the animals are taken out of the experiment. The second half of the animals continues to have free access to food/water for a further 7 days. On day 6 after the last injection, the animals are maintained on hunger (for 12 hours) with free access to water. Upon expiration of this time period, the animals are taken out of the experiment.
The total kidney, liver and muscle homogenates were prepared as follows. Organ excision and homogenization were carried out at a temperature of 1-4° C. […] The volume of the used buffer in ml was 5 times larger than the mass of isolated organs in grams. The isolated liver was perfused with chilled saline (0.9% NaCl) via the portal vein using a syringe. The minced liver was transferred to a homogenizer with a finely ground Teflon pestle and homogenized in chilled buffer. An isolated pair of kidneys was perfused with chilled saline, released from adipose tissue and minced with scissors. […]

SMILES: CC(=O)[O-].CC(=O)[O-].[Zn+2] [Zn acetate, Zinc acetate]
- Zinc level in liver and kidney tissues: significantly increased

Reference: patent US20210187016A1, “METHOD OF TREATING NONALCOHOLIC STEATOHEPATITIS” (Vector Vitale IP LLC, priority 2019, published 2021)
